Measured values taken from ChEMBL document CHEMBL2073846, “Pharmacokinetic study of the hepatobiliary transport of indomethacin” (Pharm Res, 2000).

Key:
[1] = target: T1, ATP-binding cassette sub-family C member 2 (Rattus norvegicus, UniProt Q63120); assay: TP_TRANSPORTER: biliary excretion in SD rat; assay type: functional, organism-based, Sprague-Dawley, Bile; conditions: in vivo
[2] = target: T1, ATP-binding cassette sub-family C member 2; assay: TP_TRANSPORTER: biliary excretion in EHBR rat; assay type: functional, organism-based, Bile; conditions: in vivo
[3] = target: T2, Solute carrier organic anion transporter family member 1A1 (Rattus norvegicus, UniProt P46720); assay: TP_TRANSPORTER: uptake in Oatp1-expressing COS-7 cells; assay type: functional, cell-based; conditions: monkey
T2 sequence (P46720 whole entry): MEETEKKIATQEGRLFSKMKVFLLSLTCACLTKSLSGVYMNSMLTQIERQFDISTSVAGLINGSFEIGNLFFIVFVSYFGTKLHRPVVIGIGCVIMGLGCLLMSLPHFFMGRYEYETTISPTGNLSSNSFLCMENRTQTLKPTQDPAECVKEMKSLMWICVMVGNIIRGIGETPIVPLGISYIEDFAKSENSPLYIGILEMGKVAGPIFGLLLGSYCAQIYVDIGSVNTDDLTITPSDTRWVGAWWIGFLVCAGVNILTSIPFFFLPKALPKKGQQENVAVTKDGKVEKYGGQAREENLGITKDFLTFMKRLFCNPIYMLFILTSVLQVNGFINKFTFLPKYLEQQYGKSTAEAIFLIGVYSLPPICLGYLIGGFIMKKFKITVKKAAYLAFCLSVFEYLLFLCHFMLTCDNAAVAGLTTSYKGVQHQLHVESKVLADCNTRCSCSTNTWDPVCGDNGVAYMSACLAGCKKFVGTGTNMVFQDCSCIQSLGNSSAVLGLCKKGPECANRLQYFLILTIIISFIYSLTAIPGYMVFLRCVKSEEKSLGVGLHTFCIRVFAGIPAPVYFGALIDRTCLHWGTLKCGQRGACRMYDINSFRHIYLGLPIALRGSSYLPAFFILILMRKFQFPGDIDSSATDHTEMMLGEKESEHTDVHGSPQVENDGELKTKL

[4] = target: T3, Hepatic sodium/bile acid cotransporter (Rattus norvegicus, UniProt P26435); assay: TP_TRANSPORTER: uptake in Ntcp-expressing COS-7 cells; assay type: functional, cell-based; conditions: monkey
T3 sequence (P26435 whole entry): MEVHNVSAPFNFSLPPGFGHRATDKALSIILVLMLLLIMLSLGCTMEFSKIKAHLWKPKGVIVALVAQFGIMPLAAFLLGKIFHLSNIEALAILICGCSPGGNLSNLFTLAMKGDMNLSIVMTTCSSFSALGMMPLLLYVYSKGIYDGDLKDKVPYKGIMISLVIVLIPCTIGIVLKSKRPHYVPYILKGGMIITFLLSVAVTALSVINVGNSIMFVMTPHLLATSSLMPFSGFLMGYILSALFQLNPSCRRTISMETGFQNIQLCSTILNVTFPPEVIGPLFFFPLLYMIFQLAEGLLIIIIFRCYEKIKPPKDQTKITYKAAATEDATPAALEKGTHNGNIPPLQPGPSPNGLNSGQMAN

T1 sequence (Q63120 whole entry): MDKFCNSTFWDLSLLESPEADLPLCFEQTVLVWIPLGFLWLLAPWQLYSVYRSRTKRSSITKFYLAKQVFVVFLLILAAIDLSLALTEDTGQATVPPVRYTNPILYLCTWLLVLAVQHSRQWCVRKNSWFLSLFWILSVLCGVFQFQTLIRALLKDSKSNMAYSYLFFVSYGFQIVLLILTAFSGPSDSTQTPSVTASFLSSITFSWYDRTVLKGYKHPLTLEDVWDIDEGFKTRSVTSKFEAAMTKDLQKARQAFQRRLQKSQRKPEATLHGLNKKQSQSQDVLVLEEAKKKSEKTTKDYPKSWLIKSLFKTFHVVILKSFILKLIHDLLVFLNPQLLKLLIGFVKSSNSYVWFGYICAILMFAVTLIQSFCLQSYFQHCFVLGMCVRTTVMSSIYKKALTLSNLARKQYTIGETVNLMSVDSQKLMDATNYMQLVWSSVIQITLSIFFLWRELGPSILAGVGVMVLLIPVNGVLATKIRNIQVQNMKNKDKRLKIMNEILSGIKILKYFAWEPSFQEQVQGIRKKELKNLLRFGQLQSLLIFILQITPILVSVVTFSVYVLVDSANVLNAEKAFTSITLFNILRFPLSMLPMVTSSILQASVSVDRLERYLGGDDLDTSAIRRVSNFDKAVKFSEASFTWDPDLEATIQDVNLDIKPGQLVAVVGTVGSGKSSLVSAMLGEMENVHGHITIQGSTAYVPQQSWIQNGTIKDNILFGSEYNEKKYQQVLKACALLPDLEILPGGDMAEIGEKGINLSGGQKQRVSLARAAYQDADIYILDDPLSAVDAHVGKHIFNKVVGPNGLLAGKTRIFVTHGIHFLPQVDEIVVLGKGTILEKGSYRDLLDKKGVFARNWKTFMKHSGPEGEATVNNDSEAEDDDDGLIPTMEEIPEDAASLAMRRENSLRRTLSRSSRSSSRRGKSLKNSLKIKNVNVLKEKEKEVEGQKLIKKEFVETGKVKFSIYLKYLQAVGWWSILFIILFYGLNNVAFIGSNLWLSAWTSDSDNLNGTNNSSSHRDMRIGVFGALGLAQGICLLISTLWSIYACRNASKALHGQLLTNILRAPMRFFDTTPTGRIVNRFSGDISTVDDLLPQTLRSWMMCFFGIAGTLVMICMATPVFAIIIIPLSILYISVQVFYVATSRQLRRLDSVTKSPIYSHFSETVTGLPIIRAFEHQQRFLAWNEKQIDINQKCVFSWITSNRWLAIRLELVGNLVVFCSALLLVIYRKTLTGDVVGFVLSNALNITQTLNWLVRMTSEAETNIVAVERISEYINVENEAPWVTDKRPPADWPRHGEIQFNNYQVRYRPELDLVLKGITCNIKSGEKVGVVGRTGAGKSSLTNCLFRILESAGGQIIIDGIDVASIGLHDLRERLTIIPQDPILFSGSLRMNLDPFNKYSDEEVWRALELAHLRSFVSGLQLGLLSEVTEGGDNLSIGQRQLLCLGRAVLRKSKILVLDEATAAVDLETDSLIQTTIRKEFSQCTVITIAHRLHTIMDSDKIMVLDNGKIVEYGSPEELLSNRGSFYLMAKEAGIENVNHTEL

| Activity [1] | Activity [2] | Activity [3] | Activity [4] | Structure (SMILES) |
| --- | --- | --- | --- | --- |
| substrate [+] | substrate [+] |  |  | COc1ccc2c(c1)c(CC(=O)O[C@@H]1O[C@H](C(=O)O)[C@@H](O)[C@H](O)[C@H]1O)c(C)n2C(=O)c1ccc(Cl)cc1 [INDOMETHACIN GLUCURONIDE] |
| is not a substrate [-] | is not a substrate [-] | is not a substrate [-] | is not a substrate [-] | COc1ccc2c(c1)c(CC(=O)O)c(C)n2C(=O)c1ccc(Cl)cc1 [INDOMETHACIN] |
